Where two headings read alike, the source gives them in different places.
Key:
Test in all cases: KiNativ assay
Type in all cases: binding
Settings in all cases: H929 live cell
STLK3 = STLK3 (Homo sapiens (Human), UniProt Q9UEW8)
Description: (§1) Biochemical IC50s of the compounds of the present disclosure against various kinases were measured in a KiNativ assay. Compounds were screened in duplicate at 10 μM in H929 live cell. IC50 was measured via Mass spectroscopy (MS).

PKN1 = PKN1 (Homo sapiens (Human), UniProt Q16512)
Description: as §1

MAP2K3 = MAP2K3 (Homo sapiens (Human), UniProt P46734)
Description: as §1

[1] = system: ZC1/HGK, ZC2/TNIK, ZC3/MINK
Description: as §1

MARK2 = MARK2 (Homo sapiens (Human), UniProt Q7KZI7)
Description: as §1

MST1, MST2 = system: MST1, MST2
Description: as §1

RSK1 domain2 = RSK1 domain2 (Homo sapiens (Human), UniProt Q15418)
Description: as §1

SRPK1 = SRPK1 (Homo sapiens (Human), UniProt Q96SB4)
Description: as §1

CDK7 = CDK7 (Homo sapiens (Human), UniProt P50613)
Description: as §1

ILK = ILK (Homo sapiens (Human), UniProt Q13418)
Description: as §1

MST1 = MST1 (Homo sapiens (Human), UniProt Q13043)
Description: as §1

PAN3 = PAN3 (Homo sapiens (Human), UniProt Q58A45)
Description: as §1

MST4, YSK1 = system: MST4, YSK1
Description: as §1

CDK11, CDK8 = system: CDK11, CDK8
Description: as §1

PKD3 = PKD3 (Homo sapiens (Human), UniProt O94806)
Description: as §1

RSK2 domain2 = RSK2 domain2 (Homo sapiens (Human), UniProt P51812)
Description: as §1

LOK = LOK (Homo sapiens (Human), UniProt O94804)
Description: as §1

CDK2 = CDK2 (Homo sapiens (Human), UniProt P24941)
Description: as §1

MST4 = system: MST4
Description: as §1

LKB1 = LKB1 (Homo sapiens (Human), UniProt Q15831)
Description: as §1

NDR1 = NDR1 (Homo sapiens (Human), UniProt Q15208)
Description: as §1

PKCz = PKCz (Homo sapiens (Human), UniProt Q05513)
Description: as §1

PITSLRE = system: PITSLRE
Description: as §1

PRPK = PRPK (Homo sapiens (Human), UniProt Q96S44)
Description: as §1

JAK1 domain2 = JAK1 domain2 (Homo sapiens (Human), UniProt P23458)
Description: as §1

ACK = ACK (Homo sapiens (Human), UniProt Q07912)
Description: as §1

DGKH = DGKH (Homo sapiens (Human), UniProt Q86XP1)
Description: as §1

MAP3K5 = MAP3K5 (Homo sapiens (Human), UniProt Q99683)
Description: as §1

PIP4K2C = PIP4K2C (Homo sapiens (Human), UniProt Q8TBX8)
Description: as §1

CSK = CSK (Homo sapiens (Human), UniProt P41240)
Description: as §1

CaMK2d = CaMK2d (Homo sapiens (Human), UniProt Q13557)
Description: as §1

eEF2K = eEF2K (Homo sapiens (Human), UniProt O00418)
Description: as §1

MLK3 = MLK3 (Homo sapiens (Human), UniProt Q16584)
Description: as §1

CaMK2g = CaMK2g (Homo sapiens (Human), UniProt Q13555)
Description: as §1

Chain of CSK (P41240 whole entry): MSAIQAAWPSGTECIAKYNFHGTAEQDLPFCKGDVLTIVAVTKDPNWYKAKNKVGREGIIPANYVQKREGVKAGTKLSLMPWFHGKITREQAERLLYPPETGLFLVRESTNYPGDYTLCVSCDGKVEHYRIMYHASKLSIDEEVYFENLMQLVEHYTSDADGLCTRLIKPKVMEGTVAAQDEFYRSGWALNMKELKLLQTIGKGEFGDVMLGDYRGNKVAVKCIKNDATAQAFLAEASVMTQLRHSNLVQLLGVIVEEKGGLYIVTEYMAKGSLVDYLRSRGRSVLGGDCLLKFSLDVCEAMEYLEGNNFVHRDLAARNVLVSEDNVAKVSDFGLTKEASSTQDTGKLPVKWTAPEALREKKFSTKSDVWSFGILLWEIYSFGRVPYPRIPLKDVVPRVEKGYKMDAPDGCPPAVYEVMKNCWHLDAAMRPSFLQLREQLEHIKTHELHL
Chain of eEF2K (O00418 whole entry): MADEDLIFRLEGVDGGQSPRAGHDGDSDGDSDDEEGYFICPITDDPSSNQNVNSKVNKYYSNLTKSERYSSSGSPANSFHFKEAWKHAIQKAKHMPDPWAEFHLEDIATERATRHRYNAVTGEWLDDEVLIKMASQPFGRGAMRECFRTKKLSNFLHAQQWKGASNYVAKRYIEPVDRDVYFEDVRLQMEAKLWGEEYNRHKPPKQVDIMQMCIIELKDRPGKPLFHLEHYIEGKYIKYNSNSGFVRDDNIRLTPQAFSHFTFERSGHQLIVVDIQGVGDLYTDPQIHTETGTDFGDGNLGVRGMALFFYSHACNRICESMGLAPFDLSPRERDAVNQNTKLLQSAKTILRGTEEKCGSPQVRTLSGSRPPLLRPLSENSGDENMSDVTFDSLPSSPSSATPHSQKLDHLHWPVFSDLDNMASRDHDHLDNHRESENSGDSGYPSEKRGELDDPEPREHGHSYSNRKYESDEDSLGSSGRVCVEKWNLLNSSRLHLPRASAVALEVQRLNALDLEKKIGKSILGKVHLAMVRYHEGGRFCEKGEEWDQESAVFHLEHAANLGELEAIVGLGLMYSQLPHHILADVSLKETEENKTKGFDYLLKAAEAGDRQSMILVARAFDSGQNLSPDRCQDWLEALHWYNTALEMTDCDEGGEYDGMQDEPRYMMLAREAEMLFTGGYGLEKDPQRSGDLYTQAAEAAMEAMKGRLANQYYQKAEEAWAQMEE
Chain of CaMK2g (Q13555 whole entry): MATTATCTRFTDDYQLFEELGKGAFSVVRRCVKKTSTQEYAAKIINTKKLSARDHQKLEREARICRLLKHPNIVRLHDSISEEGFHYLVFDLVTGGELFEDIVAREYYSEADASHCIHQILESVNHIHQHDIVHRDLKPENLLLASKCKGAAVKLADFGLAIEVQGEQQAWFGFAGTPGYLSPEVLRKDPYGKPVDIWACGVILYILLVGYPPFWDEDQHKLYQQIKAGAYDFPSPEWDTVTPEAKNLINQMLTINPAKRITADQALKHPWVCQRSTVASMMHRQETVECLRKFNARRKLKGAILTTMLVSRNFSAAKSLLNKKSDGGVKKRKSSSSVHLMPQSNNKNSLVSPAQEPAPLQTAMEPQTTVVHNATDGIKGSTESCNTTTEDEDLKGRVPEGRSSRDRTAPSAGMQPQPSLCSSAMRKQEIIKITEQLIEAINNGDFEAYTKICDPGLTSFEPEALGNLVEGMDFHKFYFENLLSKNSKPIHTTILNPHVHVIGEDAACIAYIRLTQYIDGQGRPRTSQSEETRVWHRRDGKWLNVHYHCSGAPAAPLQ
Chain of RSK1 domain2 (Q15418 whole entry, the tested form may be a part): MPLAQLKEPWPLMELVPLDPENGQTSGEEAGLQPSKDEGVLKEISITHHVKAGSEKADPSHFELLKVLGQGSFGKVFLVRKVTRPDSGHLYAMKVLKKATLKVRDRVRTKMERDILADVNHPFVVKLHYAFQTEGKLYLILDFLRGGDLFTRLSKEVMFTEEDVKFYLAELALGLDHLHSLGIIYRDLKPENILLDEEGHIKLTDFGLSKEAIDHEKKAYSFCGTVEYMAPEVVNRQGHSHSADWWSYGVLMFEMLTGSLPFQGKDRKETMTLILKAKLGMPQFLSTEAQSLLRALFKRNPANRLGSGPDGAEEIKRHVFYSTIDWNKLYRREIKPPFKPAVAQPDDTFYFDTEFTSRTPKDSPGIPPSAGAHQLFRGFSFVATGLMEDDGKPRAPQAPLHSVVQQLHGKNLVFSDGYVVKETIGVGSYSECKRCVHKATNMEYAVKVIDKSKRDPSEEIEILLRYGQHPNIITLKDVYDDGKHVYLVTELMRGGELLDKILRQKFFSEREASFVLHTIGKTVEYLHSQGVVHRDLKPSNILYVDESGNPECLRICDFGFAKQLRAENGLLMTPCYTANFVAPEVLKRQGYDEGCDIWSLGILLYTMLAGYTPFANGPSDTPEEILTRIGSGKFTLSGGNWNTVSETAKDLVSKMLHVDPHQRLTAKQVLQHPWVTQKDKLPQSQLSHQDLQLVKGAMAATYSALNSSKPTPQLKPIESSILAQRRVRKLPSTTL
Chain of RSK2 domain2 (P51812 whole entry, the tested form may be a part): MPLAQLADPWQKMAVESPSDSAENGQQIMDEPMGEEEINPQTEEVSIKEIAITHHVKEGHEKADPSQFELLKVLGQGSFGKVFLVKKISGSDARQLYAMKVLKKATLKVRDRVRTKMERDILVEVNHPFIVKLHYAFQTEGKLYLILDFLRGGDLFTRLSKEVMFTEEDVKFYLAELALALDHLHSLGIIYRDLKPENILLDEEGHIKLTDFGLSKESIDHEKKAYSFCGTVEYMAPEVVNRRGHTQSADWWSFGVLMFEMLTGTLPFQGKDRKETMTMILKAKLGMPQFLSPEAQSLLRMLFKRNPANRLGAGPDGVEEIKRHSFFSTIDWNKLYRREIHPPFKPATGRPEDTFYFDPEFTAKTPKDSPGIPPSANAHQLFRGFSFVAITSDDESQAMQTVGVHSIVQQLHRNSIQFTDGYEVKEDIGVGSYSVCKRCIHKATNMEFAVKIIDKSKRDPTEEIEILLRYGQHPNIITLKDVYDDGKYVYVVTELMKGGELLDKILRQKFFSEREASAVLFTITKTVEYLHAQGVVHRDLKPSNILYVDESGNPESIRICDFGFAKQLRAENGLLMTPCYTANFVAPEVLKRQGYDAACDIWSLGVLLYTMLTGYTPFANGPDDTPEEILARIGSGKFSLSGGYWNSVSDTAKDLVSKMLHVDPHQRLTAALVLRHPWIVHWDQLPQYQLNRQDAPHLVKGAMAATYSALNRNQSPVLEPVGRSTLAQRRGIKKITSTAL
Chain of ACK (Q07912 whole entry): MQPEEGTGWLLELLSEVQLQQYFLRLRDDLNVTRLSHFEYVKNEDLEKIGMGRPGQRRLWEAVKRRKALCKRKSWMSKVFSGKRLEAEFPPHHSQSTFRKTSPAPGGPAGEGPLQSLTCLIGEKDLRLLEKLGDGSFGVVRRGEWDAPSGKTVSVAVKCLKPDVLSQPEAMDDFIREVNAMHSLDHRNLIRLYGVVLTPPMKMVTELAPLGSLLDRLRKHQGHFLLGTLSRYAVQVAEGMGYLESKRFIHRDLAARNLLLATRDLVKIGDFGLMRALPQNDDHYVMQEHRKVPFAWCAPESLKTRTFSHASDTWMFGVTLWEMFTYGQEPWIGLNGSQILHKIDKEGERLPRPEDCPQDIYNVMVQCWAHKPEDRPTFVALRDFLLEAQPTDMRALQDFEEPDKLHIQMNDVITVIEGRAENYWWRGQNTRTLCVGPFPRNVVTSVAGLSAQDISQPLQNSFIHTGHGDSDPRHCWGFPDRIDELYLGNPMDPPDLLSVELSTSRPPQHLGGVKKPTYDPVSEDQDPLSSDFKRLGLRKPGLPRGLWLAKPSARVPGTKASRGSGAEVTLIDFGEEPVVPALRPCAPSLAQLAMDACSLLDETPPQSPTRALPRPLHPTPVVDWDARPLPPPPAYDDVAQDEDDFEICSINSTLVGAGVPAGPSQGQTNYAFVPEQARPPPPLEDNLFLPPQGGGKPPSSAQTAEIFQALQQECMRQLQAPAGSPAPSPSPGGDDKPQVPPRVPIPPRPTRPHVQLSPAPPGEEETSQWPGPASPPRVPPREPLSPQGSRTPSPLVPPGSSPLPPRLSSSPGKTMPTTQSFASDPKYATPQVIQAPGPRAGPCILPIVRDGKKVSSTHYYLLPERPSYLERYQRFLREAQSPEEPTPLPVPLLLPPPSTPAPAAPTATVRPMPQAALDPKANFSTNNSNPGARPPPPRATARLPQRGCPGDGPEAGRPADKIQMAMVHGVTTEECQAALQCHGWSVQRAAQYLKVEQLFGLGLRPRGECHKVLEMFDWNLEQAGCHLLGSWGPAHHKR
Chain of PIP4K2C (Q8TBX8 whole entry): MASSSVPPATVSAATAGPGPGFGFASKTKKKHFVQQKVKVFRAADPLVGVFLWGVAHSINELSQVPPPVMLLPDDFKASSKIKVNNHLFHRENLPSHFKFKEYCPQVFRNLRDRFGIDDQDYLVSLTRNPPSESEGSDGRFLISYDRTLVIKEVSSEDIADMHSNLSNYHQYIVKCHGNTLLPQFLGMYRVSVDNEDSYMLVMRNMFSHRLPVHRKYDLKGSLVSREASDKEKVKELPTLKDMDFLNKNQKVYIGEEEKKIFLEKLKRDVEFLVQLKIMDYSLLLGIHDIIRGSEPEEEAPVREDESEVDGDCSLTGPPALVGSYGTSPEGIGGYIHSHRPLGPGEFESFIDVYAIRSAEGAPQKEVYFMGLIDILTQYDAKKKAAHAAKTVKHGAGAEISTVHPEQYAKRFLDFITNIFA
Chain of MAP2K3 (P46734 whole entry): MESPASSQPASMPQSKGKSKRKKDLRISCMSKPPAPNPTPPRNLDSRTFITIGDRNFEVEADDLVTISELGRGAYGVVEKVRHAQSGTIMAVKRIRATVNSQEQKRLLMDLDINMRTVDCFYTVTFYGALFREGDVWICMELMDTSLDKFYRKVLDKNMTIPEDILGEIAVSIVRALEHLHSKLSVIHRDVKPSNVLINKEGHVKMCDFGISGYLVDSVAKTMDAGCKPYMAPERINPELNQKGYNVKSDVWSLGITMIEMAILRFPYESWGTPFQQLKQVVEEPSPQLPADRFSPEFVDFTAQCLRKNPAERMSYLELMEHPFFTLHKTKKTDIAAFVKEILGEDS

Nc1ncc(-c2cccc3ncsc23)cc1-c1ccc2c(c1)CCNC2=O [Compound I-13, 6-(2-amino-5-(benzo[d]thiazol-7-yl)pyridin-3-yl)-3,4-dihydroisoquinolin-1(2H)-one]
inhibition at 10 µM (STLK3; read-out: % inhibition (range)): 0%
inhibition at 10 µM (STLK3; read-out: inhibition (10 μM)): 1.1%
inhibition at 10 µM (PKN1; read-out: % inhibition (range)): 0%
inhibition at 10 µM (PKN1; read-out: inhibition (10 μM)): 19%
inhibition at 10 µM (MAP2K3; read-out: % inhibition (range)): 0%
inhibition at 10 µM (MAP2K3; read-out: inhibition (10 μM)): 1.1%
% inhibition (range) ([1]; 10 μM): >90%
inhibition (10 μM) [1]: 97.0%
inhibition at 10 µM (MARK2; read-out: % inhibition (range)): 0%
inhibition at 10 µM (MARK2; read-out: inhibition (10 μM)): 32.3%
% inhibition (range) (MST1, MST2; 10 μM): 75-90%
inhibition (10 μM) (MST1, MST2): 89.4%
inhibition at 10 µM (RSK1 domain2; read-out: % inhibition (range)): 0%
inhibition at 10 µM (RSK1 domain2; read-out: inhibition (10 μM)): -7.7%
inhibition at 10 µM (SRPK1; read-out: % inhibition (range)): 0%
inhibition at 10 µM (SRPK1; read-out: inhibition (10 μM)): 10.8%
inhibition at 10 µM (CDK7; read-out: % inhibition (range)): 0%
inhibition at 10 µM (CDK7; read-out: inhibition (10 μM)): 32.9%
inhibition at 10 µM (ILK; read-out: % inhibition (range)): 0%
inhibition at 10 µM (ILK; read-out: inhibition (10 μM)): 1.6%
inhibition at 10 µM (MST1; read-out: % inhibition (range)): 75 to 90%
inhibition at 10 µM (MST1; read-out: inhibition (10 μM)): 89%
inhibition at 10 µM (PAN3; read-out: % inhibition (range)): 0%
inhibition at 10 µM (PAN3; read-out: inhibition (10 μM)): -4%
% inhibition (range) (MST4, YSK1; 10 μM): 0.0%
inhibition (10 μM) (MST4, YSK1): −17.0%
% inhibition (range) (CDK11, CDK8; 10 μM): 50-75%
inhibition (10 μM) (CDK11, CDK8): 59.3%
inhibition at 10 µM (PKD3; read-out: % inhibition (range)): 50 to 75%
inhibition at 10 µM (PKD3; read-out: inhibition (10 μM)): 69.4%
inhibition at 10 µM (RSK2 domain2; read-out: % inhibition (range)): 0%
inhibition at 10 µM (RSK2 domain2; read-out: inhibition (10 μM)): 3.8%
inhibition at 10 µM (LOK; read-out: % inhibition (range)): 50 to 75%
inhibition at 10 µM (LOK; read-out: inhibition (10 μM)): 61.5%
inhibition at 10 µM (CDK2; read-out: % inhibition (range)): 0%
inhibition at 10 µM (CDK2; read-out: inhibition (10 μM)): 33.3%
% inhibition (range) (MST4; 10 μM): 0.0%
inhibition (10 μM) (MST4): 29.3%
inhibition at 10 µM (LKB1; read-out: % inhibition (range)): 0%
inhibition at 10 µM (LKB1; read-out: inhibition (10 μM)): 4.3%
inhibition at 10 µM (NDR1; read-out: % inhibition (range)): 0%
inhibition at 10 µM (NDR1; read-out: inhibition (10 μM)): 13%
inhibition at 10 µM (PKCz; read-out: % inhibition (range)): 0%
inhibition at 10 µM (PKCz; read-out: inhibition (10 μM)): 15.5%
% inhibition (range) (PITSLRE; 10 μM): 0.0%
inhibition (10 μM) (PITSLRE): −3.6%
inhibition at 10 µM (PRPK; read-out: % inhibition (range)): 0%
inhibition at 10 µM (PRPK; read-out: inhibition (10 μM)): -6.4%
inhibition at 10 µM (JAK1 domain2; read-out: % inhibition (range)): 0%
inhibition at 10 µM (JAK1 domain2; read-out: inhibition (10 μM)): -16%
inhibition at 10 µM (ACK; read-out: % inhibition (range)): 0%
inhibition at 10 µM (ACK; read-out: inhibition (10 μM)): 23.3%
inhibition at 10 µM (DGKH; read-out: % inhibition (range)): 0%
inhibition at 10 µM (DGKH; read-out: inhibition (10 μM)): 25.7%
inhibition at 10 µM (MAP3K5; read-out: % inhibition (range)): 0%
inhibition at 10 µM (MAP3K5; read-out: inhibition (10 μM)): 25.6%
inhibition at 10 µM (PIP4K2C; read-out: % inhibition (range)): 35 to 50%
inhibition at 10 µM (PIP4K2C; read-out: inhibition (10 μM)): 42%
inhibition at 10 µM (CSK; read-out: % inhibition (range)): 0%
inhibition at 10 µM (CSK; read-out: inhibition (10 μM)): 4.7%
inhibition at 10 µM (CaMK2d; read-out: % inhibition (range)): 0%
inhibition at 10 µM (CaMK2d; read-out: inhibition (10 μM)): -4.3%
inhibition at 10 µM (eEF2K; read-out: % inhibition (range)): 0%
inhibition at 10 µM (eEF2K; read-out: inhibition (10 μM)): -45.5%
inhibition at 10 µM (MLK3; read-out: % inhibition (range)): 0%
inhibition at 10 µM (MLK3; read-out: inhibition (10 μM)): -3.9%
inhibition at 10 µM (CaMK2g; read-out: % inhibition (range)): 0%
inhibition at 10 µM (CaMK2g; read-out: inhibition (10 μM)): -13.6%
